Measured values: article PMC9523135, “Apamin structure and pharmacology revisited” (Frontiers in Pharmacology, 2022)
Values after ≈ are worked out from the molar mass of the structure shown. Read-outs that look alike come from different tables or passages of the source.

How the values were obtained:
[1] = test system: E. faecalis; test: Antimicrobial assay, microtitre broth dilution, E. faecalis; assay type: cell-based, Enterococcus faecalis ATCC 29212; conditions: lowest concentration causing 100% growth inhibition; 24 h, 37°C; n = 5
Procedure: Apamin was tested against Gram-positive (Enterococcus faecalis ATCC 29212, Staphylococcus aureus subsp. aureus ATCC 29213) and Gram-negative bacteria (Escherichia coli ATCC 25922, Pseudomonas aeruginosa ATCC 27853) following the previously described modification of the microtitre broth dilution method ([Vassilevski et al., 2010]). Those bacterial strains were also subjected to the treatment by melittin in the same concentration range to serve as a positive control.
Briefly, bacteria were cultured in a low-salt LB medium. The two-fold microtitre broth dilution assay was carried out in 96-well sterile plates in a final volume of 100 μL. Mid-exponential-phase cultures were diluted to a final concentration of 10^5 colony-forming units·ml^−1. Pure peptides were dissolved in 10 μL of water and added to 90 μL of the bacterial dilution. The samples, a non-treated control and a sterility control were tested in five independent experiments (n = 5). The microtitre plates were incubated for 24 h at 37°C, and growth inhibition was determined by measuring the absorbance at 620 nm. Minimum inhibitory concentration (MIC) is expressed as the lowest concentration of peptide that caused 100% bacterial growth inhibition.

[2] = test system: KCa3.1; test: Patch-clamp, HEK293 cells expressing hKCa3.1 (IK); assay type: cell-based, human; conditions: 1 µM TRAM-34
Procedure: (§1) HEK293 cells stably expressing hKCa1.1 (BK, GenBank accession number: NM_002247), hKCa2.1 (SK1, NM_002248), and hKCa3.1 (IK, AH009923) or COS7 cells stably expressing hKCa2.3 (SK3, AJ251016) were generated and cultured as previously described ([Sankaranarayanan et al., 2009]). HEK293 cells stably expressing rKCa2.2 (SK2, NM_019314) were a gift from Dr. Mio Zhang (Chapman University, Irvine).
(§2) All experiments were conducted with an EPC-10 amplifier (HEKA) in the whole-cell configuration with a holding potential of –80 mV. Pipette resistances averaged around 2.5 MΩ. […] Free Ca^2+ concentrations were calculated with MaxChelator (developed by Chris Patton, Stanford University) assuming a temperature of 25°C, pH 7.2, and ionic strength of 160 mM. […] Please note that the provided concentrations are what was weighed in to achieve an initially hyperosmolar solution that was diluted with water to 310 mOsm for the internal and 315 mOsm for the external solution as measured with a VAPRO Vapor pressure osmometer (Wescor). […]
(§3) KCa2 and KCa3.1 currents were elicited by 200-ms voltage ramps from –120 to 40 mV applied every 10 s, and the fold decrease of slope conductance at –80 mV was taken as a measure of apamin-induced channel inhibition. […] KCa1.1 channel activity was recorded with a step protocol, in which cells were stepped to +40 mV for 100 ms at 30-s intervals. […]

[3] = test system: KV11.1; test: Two-electrode voltage-clamp, X. laevis oocytes, hKV11.1 (hERG); assay type: cell-based, human; set-up: key to effect on current: N.E.: no effect at 5 μM concentration; conditions: 5 μM apamin, n = 5
Procedure: Linearized plasmids bearing the ion channel genes were transcribed using the mMESSAGE mMACHINE SP6 or T7 transcription kits (Ambion) to prepare the respective cRNA. The harvesting of stage V–VI oocytes from anaesthetized female X. laevis frogs was described previously ([Liman et al., 1992]; [Peigneur et al., 2021]). Oocytes were injected with 50 nL of cRNA at a concentration of 1 ng nl^−1 using a microinjector (Drummond Scientific). The oocytes were incubated at 16°C in ND96 solution containing (in mM): NaCl, 96; KCl, 2; CaCl2, 1.8; MgCl2, 2; and HEPES, 5 (pH 7.4), supplemented with 50 mg l^−1 gentamicin sulfate.
Recordings were performed at room temperature (18°C–22°C) using a Geneclamp 500 amplifier (Molecular Devices) controlled by a pClamp data acquisition system (Axon Instruments). Whole-cell currents from oocytes were recorded 1–4 days after cRNA injection. Bath solution composition was ND96, or HK containing (in mM): NaCl, 2; KCl, 96; CaCl2, 1.8; MgCl2, 2; and HEPES, 5 (pH 7.4). Voltage and current electrodes were filled with 3 M KCl. […]
Currents were evoked by a 100 ms (NaV) or 500 ms (KV) depolarization to the voltage corresponding to the maximal activation of the channels in control conditions from a holding potential of −90 mV. […] TRP currents were measured in ND96 at −90 mV during 400 s. […] Peak current amplitude was measured prior to and following the application of the peptide. […]

[4] = target: T1, KCa2.1 (Homo sapiens, UniProt Q92952); test: Patch-clamp, HEK293 cells expressing hKCa2.1 (SK1); assay type: cell-based; conditions: voltage ramps –120 to 40 mV, slope conductance at –80 mV, 1 μM free Ca^2+ internal; Hill fit, n ≥ 5; 95% CI 3.3–5.0 nM
T1 construct: expressed in transfected cells
T1 sequence (Q92952 whole entry): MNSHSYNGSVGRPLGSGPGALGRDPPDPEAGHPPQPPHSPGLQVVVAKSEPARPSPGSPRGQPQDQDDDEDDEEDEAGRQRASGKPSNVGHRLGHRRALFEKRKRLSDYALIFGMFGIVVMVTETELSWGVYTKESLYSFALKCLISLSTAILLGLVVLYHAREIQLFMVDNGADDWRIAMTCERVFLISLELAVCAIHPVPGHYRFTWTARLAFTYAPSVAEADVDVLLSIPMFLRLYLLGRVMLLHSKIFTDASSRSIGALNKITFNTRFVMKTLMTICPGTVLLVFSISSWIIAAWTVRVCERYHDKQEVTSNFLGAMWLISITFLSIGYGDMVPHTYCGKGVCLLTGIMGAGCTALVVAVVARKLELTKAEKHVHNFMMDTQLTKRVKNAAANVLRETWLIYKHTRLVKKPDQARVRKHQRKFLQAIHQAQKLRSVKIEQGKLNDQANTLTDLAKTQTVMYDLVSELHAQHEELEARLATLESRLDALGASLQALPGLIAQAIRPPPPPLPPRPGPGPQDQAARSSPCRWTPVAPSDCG
Procedure: as §1, §2, §3

[5] = test system: mice; conditions: cited from earlier work
Excerpt: The symptoms are apparently of central origin because the toxicity increases by a factor of 1,000–10,000 and the progression of poisoning is faster in case of i.c.v. injection, but the clinical picture stays the same ([Habermann, 1977], [Habermann, 1984]).

[6] = test system: KCa2; conditions: Kalium database; ref Kuzmenkov et al., 2016; Tabakmakher et al., 2019; cited from earlier work
Excerpt: (§4) According to the Kalium database (https://kaliumdb.org) ([Kuzmenkov et al., 2016]; [Tabakmakher et al., 2019]), six of these substances were identified in scorpion venom (AmP05, maurotoxin, Pi-1, scyllatoxin, tamapin, and Ts9). […] Intere ...

[7] = test system: KCa2.2; conditions: cited from earlier work
Excerpt: as §4

## CC[C@H](C)[C@H](NC(=O)CN)C(=O)NCC(=O)N[C@@H](C)C(=O)N[C@H](C(=O)N[C@@H](CC(C)C)C(=O)N[C@@H](CCCCN)C(=O)N[C@H](C(=O)N[C@@H](CC(C)C)C(=O)N[C@H](C(=O)N[C@H](C(=O)NCC(=O)N[C@@H](CC(C)C)C(=O)N1CCC[C@H]1C(=O)N[C@@H](C)C(=O)N[C@@H](CC(C)C)C(=O)N[C@H](C(=O)N[C@@H](CO)C(=O)N[C@@H](Cc1c[nH]c2ccccc12)C(=O)N[C@H](C(=O)N[C@@H](CCCCN)C(=O)N[C@@H](CCCNC(=N)N)C(=O)N[C@@H](CCCCN)C(=O)N[C@@H](CCCNC(=N)N)C(=O)N[C@@H](CCC(N)=O)C(=O)N[C@@H](CCC(N)=O)C(N)=O)[C@@H](C)CC)[C@@H](C)CC)[C@@H](C)O)[C@@H](C)O)C(C)C)C(C)C [Melittin]
[1]
  MIC: 0.5 µM (≈ 1.42 µg/mL)

## Clc1ccccc1C(c1ccccc1)(c1ccccc1)n1cccn1 [TRAM-34]
[2]
  block of KCa3.1 currents: potently blocked

## CC(C)C[C@@H]1NC(=O)[C@H](C)NC(=O)[C@H]([C@@H](C)O)NC(=O)[C@H](CCC(=O)O)NC(=O)[C@@H]2CCCN2C(=O)[C@H](C)NC(=O)[C@H](CCCCN)NC(=O)[C@@H]2CSSC[C@@H](C(=O)N[C@@H](CCC(N)=O)C(=O)N[C@@H](CCC(N)=O)C(=O)N[C@@H](Cc3cnc[nH]3)C(N)=O)NC(=O)[C@H](CCCNC(=N)N)NC(=O)[C@H](CCCNC(=N)N)NC(=O)[C@H](C)NC(=O)[C@H](CSSC[C@H](N)C(=O)N[C@@H](CC(N)=O)C(=O)N2)NC1=O [apamin]
[3]; mean ± SD
  current ratio (Iapamin/Icontrol): 1.07 ± 0.06
[3]
  effect on current: N.E.
[4]
  IC50: 4.1 nM
[5]; i.c.v. compared with i.v., ref Habermann, 1977, 1984
  factor of toxicity increase on i.c.v. injection: 1,000–10,000
[5]; i.v., ref Habermann and Reiz, 1965, 1972
  LD50: ≈ 4 mg kg^−1
[5]; ref Habermann and Reiz, 1965, 1972
  symptoms when injected into mice: muscle spasms, jerks, and convulsions

## maurotoxin (VSCTGSKDCYAPCRKQTGCPNAKCINKSCKCYGC; UniProt P80719 1-34, looked up)
[6]
  affinity on KCa2: high (nanomolar) affinity

## scyllatoxin: scorpion toxin from Leiurus quinquestriatus hebraeus (AFCNLRMCQLSCRSLGLLGKCIGDKCECVKH; UniProt P16341 1-31, looked up)
[7]; ref Shakkottai et al., 2001
  IC50 range in words: subnanomolar range
[6]
  affinity on KCa2: high (nanomolar) affinity

## tamapin: scorpion toxin from Mesobuthus tamulus (AFCNLRRCELSCRSLGLLGKCIGEECKCVPY; UniProt P59869 1-31, looked up)
[7]; ref Pedarzani et al., 2002
  IC50 range in words: subnanomolar range
[6]
  affinity on KCa2: high (nanomolar) affinity
